Assays:
GST-STING139-378 = biological target: T1, GST-STING139-378 (Mus musculus, UniProt Q3TBT3); experiment: Pull-down using biotinylated Ap4A and recombinant proteins (in vitro binding and competition); conditions: for Competition for the binding of STING to biotinylated Ap4A: 10-fold excess of the competitor, 1 h at 4° C.
T1 construct: GST-STING (aa 139-378); made in house; host or cells: Escherichia coli BL21
T1 sequence (Q3TBT3 139-378): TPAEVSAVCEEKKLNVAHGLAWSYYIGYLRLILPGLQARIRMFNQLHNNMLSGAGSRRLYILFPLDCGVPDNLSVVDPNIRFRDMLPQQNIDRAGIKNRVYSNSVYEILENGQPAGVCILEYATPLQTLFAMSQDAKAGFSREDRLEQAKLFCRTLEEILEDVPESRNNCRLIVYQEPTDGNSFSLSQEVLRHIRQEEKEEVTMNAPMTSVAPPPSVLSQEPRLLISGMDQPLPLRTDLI

MEF^Trex1−/− = experiment: Ifnβ / type I interferon mRNA levels (RT-qPCR) in treated MEF^Trex1−/−; format: cell-based, mouse; conditions: 500 μM
Experimental: (§1) RNA extraction and RT-qPCR RNA was extracted using Trizol (Invitrogen) and treated with TURBO DNase (Ambion) according to manufacturers' protocols. Reverse transcription (SuperScript IV reverse transcriptase; Invitrogen) and qPCR using specific primers were performed using SYBR GREEN (Takara) master mix and LightCycler 480 cycler (Roche). mRNA levels were normalized to Gapdh mRNA levels except in zebrafish experiments where mRNA levels were normalized to zebrafish actin (zactin).
(§2) Cells were transfected with JetPrime transfection reagent (Polyplus) at 1:2 ratio with various nucleic acids at 2 μg/ml. […] Ap4A or STAN-1 (Sigma Aldrich) were used at 500 μM in Optimem.
Next, to test whether Ap4A inhibits inflammatory responses via a STING-dependent mechanism, the inventors used three-prime repair exonuclease 1 (Trex1)-deficient mouse embryonic fibroblasts (MEF^Trex1−/−—FIG. S1D), as these are a well-characterized model of pathologic chronic inflammation with STING-dependent elevated Ifnβ levels (FIG. S1D)—(15, 16). First, the inventors treated MEF^Trex1−/− with Ap4A for 45, 90 and 180 min. […] To further assess the impact of Ap4A on STING activation and to avoid potential side effects of the addition of exogenous Ap4A to cells, the inventors next performed experiments where they modulate the expression levels of LysRS, the main producer of Ap4A (9, 10). […]

WT-MEF = experiment: DMXAA-induced Ifnβ expression in WT-MEF; format: cell-based, mouse; conditions: 200 μM DMXAA, treated with Ap4A for 2 h
Experimental: Data are normalized to non-treated control. Unpaired t-test. **: p<0.005.
as §1, §2

MEF^STING−/− = experiment: DMXAA-induced Ifnβ expression in STING knockout MEF; format: cell-based, mouse; conditions: 200 μM DMXAA, treated with Ap4A for 2 h
Experimental: Data are normalized to non-treated control.
as §1, §2

Compound	Competition for the binding of STING to biotinylated Ap4A (GST-STING139-378)	Interaction of STING139-378 with Streptavidin-immobilized biotinylated Ap4A (GST-STING139-378; Western blotting of pull-down)	type I interferon expression (IFNα and IFNβ mRNA levels) (MEF^Trex1−/−; 3 hrs, RT-qPCR)	Ifnβ mRNA levels (MEF^Trex1−/−; Ap4A 45, 90 and 180 min, STAN-1 3 h, versus untreated)	Ability of DMXAA to induce Ifnβ expression on co-treatment (WT-MEF)	Ability of DMXAA to induce Ifnβ expression on co-treatment (MEF^STING−/−)
Nc1ncnc2c1ncn2[C@@H]1O[C@H](COP(=O)(O)OP(=O)(O)OP(=O)(O)OP(=O)(O)OC[C@H]2O[C@@H](n3cnc4c(N)ncnc43)[C@H](O)[C@@H]2O)[C@@H](O)[C@H]1O [Ap4A, Diadenosine tetraphosphate]	specific	interacts	decreases type I interferon expression	decreased Ifni mRNA levels	by half	no decrease was observed
cyclic GMP-AMP [cGAMP]	displaced					
